Measurements taken from patent publication US5470862A, “Substituted pyrazolyl compounds and methods employing such compounds” (Ohmeda Pharmaceutical Products Division Inc., priority 1995, dated 1995).

Columns and labels:
mice = test: Loss of righting after intravenous administration (mouse); format: in vivo; conditions: 20 min, intravenous (lateral tail vein), 20 minute observation, acid addition salts, values corrected for the salts
Procedure: (§1) The acid addition salts of the compounds were dissolved in sterile water for injection, U.S.P, to form a solution, the concentration of which varied from 0.001 mg/ml to 5 mg/ml. Mice or rats were used for the tests. The test solution was administered to the test animal intravenously through the lateral tail vein. The animals were observed over a 20 minute period for loss of righting which is defined as the animal remaining in a supine position for 30 seconds. Five to ten mice and three to six rats were utilized for each dosage. The ED50 was calculated for each test compound either by linear regression or by a standard computer program utilizing the method of Litchfield and Wilcoxon, J. Pharmacol. Exp. Ther., vol. 96, p. 99 (1949). Since different animals were used, the ED50 values in Table 1 are those determined in the mouse except those values marked with an asterisk which were determined in the rat.

rats = test: Loss of righting after intravenous administration (rat); format: in vivo; conditions: 20 min; rat (asterisk), intravenous (lateral tail vein), 20 minute observation; acid addition salts, values corrected for the salts
Procedure: as §1

| SMILES | ED50 (mice) [mg/kg] | ED50 (rats) [mg/kg] |
| --- | --- | --- |
| CCOC(=O)c1cc(-c2csc(-c3ccncc3)n2)nn1C(C)c1ccccn1 (stereo not shown) | 5.7 | – |
| CCOC(=O)c1cc(-c2cccn2C)n(C(C)c2ccccn2)n1 (stereo not shown) | 6.2 | – |
| CCOC(=O)c1cc(-c2csc(-c3cccnc3)n2)nn1C(C)c1ccccn1 (stereo not shown) | – | 1.1 |
| CCOC(=O)c1cc(-c2coc(C)n2)nn1C(C)c1ccccn1 (stereo not shown) | – | 1.2 |
| CCOC(=O)c1cc(C(=O)OCC)n(C(C)c2cccnc2)n1 (stereo not shown) [CH3 / CO2 Et / CO2 Et / CH / N] | 8.6 | – |
| CCOC(=O)c1cc(C=O)nn1C(C)c1ccccn1 (stereo not shown) [CH3 / CHO / CO2 Et / N / CH, 3-formyl-1-(1-(2-pyridinyl)ethyl)pyrazole-5-carboxylic acid ethyl ester] | 9.9 | – |
| CCOC(=O)c1ccnn1C(C)c1ccccn1 (stereo not shown) [CH3 / H / CO2 Et / N / CH] | 31 | – |
| CCOC(=O)c1cc(-c2cccs2)nn1Cc1ccccn1 | 28.3 | – |
| CCOC(=O)c1cc(COC)n(C(C)c2ccccn2)n1 (stereo not shown) [CH3 / CO2 Et / CH2 OCH3 / N / CH] | 19.1 | – |
| CCOC(=O)c1ccn(Cc2ccccn2)n1 [H / CO2 Et / H / N / CH] | 43.9 | – |
| CCOC(=O)c1cc(CC)nn1C(C)c1ccccn1 (stereo not shown) [CH3 / CH2 CH3 / CO2 Et / N / CH] | 9.4 | – |
| CCOC(=O)c1cc(-c2csc(-c3ccncc3)n2)n(C(C)c2ccccn2)n1 (stereo not shown) | 51.4 | – |
| CCOC(=O)c1cc(-c2cccn2C)nn1C(C)c1ccccn1 (stereo not shown) | 0.95 | – |
| CCOC(=O)c1cc(-c2cocn2)nn1C(C)c1ccccn1 (stereo not shown) | 7.7 | – |
| CCOC(=O)c1cc(C(=O)OCC)n(Cc2cccnc2)n1 [H / CO2 Et / CO2 Et / CH / N] | 10.4 | – |
| CCOC(=O)c1cc(-c2cccc(N(C)C)c2)nn1C(C)c1ccccn1 (stereo not shown) | – | 1.5 |
| CCOC(=O)c1cc(-c2coc(C)n2)n(C(C)c2ccccn2)n1 (stereo not shown) | – | 8.8 |
| CCOC(=O)c1cc(C(C)=O)n(C(C)c2ccccn2)n1 (stereo not shown) [CH3 / CO2 Et / CH3 CO / N / CH] | 19.7 | – |
| CCOC(=O)c1cc(C)nn1C(C)c1cccnc1 (stereo not shown) [CH3 / CH3 / CO2 Et / CH / N] | 21.5 | – |

| SMILES | ED50 (mice) [mg/kg] | ED50 (rats) [mg/kg] |
| --- | --- | --- |
| CCOC(=O)c1cc(-c2cccc(C)n2)nn1C(C)c1ccccn1 (stereo not shown) | – | 1.6 |
| CCOC(=O)c1cc(C)nn1Cc1cccnc1 [H / CH3 / CO2 Et / CH / N] | 25.1 | – |
| C=C(C)c1cc(C(=O)OCC)nn1C(C)c1ccccn1 (stereo not shown) | 8.9 | – |
| CCOC(=O)c1cc(-c2nnco2)n(C(C)c2ccccn2)n1 (stereo not shown) | – | 7.2 |
| CCOC(=O)c1cc(-c2cc(C)on2)n(C(C)c2ccccn2)n1 (stereo not shown) | 23.7 | – |
| CCOC(=O)c1cc(C(C)=O)nn1C(C)c1ccccn1 (stereo not shown) [CH3 / CH3 CO / CO2 Et / N / CH] | 4 | – |
| CCOC(=O)c1cc(C(=O)OCC)n(Cc2ccccn2)n1 [H / CO2 Et / CO2 Et / N / CH] | 6.9 | – |
| CCOC(=O)c1cc(C)nn1Cc1ccccn1 [H / CH3 / CO2 Et / N / CH] | 17.4 | – |
| CCOC(=O)c1cc(-c2ccsc2)n(C(C)c2ccccn2)n1 (stereo not shown) | 17.6 | – |
| CCOC(=O)c1cc(-c2csc(C(=O)OCC)n2)n(C(C)c2ccccn2)n1 (stereo not shown) | 31.6 | – |
| CCOC(=O)c1cc(-c2cccc(N)c2)nn1C(C)c1ccccn1 (stereo not shown) | – | 0.53 |
| CCOC(=O)c1ccn(C(C)c2ccccn2)n1 (stereo not shown) [CH3 / CO2 Et / H / N / CH] | 34.2 | – |
| CCOC(=O)c1cc(-c2cnccn2)nn1C(C)c1ccccn1 (stereo not shown) | – | 1.5 |
| CCOC(=O)c1cc(C)n(Cc2ccccn2)n1 [H / CO2 Et / CH3 / N / CH] | 37.7 | – |
| CCOC(=O)c1cc(O)n(C(C)c2ccccn2)n1 (stereo not shown) [CH3 / CO2 Et / OH / N / CH] | 31 | – |
| CCOC(=O)c1cc(C)nn1C(C)c1ccccn1 (stereo not shown) [CH3 / CH3 / CO2 Et / N / CH] | 9 | – |
| CCOC(=O)c1cc(-c2ccccn2)n(C(C)c2ccccn2)n1 (stereo not shown) | 17.5 | – |
| CCCNC(=O)c1cc(C(=O)OCC)n(C(C)c2ccccn2)n1 (stereo not shown) [CH3 / CONHC3 H7 / CO2 Et / N / CH] | – | 1.8 |
